Test results taken from patent publication US20090297571A1, “ANTIFUNGAL WALLBOARDS AND BUILDING MATERIALS AND METHODS FOR THE PRODUCTION THEREOF” (SYNGENTA CROP PROTECTION, INC., priority 2004, published 2009).
Values after ≈ are worked out from the molar mass of the structure shown. Values joined by “and” are separate entries in the source; they are usually repeats but may differ in a detail not shown here. Equal entries are not always repeated. Where two headings read alike, the source gives them in different places.

Assays:
Format in all cases: cell-based
Aspergillus versicolor = test: Agar growth medium petri dish test, visual assessment of fungus-free surface; conditions: after 19 days at 25° C.
Procedure: (§1) A fungal growth medium was made comprising yeast extract (4 g) agar (8 g), magnesium sulphate (0.2 g), sodium nitrate (2.4 g), potassium chloride (0.2 g), potassium dihydrogen orthophosphate (0.6 g), glycerol (8 ml), distilled water (390 ml). Fungicides as set out in Tables 1 to 4 were added at levels of 5000, 100, 10, 1, 0.1 and 0.01 mg fungicide/litre of growth medium to give […] different growth medium compositions for each fungicide. These growth media containing the fungicide were each put into petri dishes.
(§2) Aspergillus versicolor, Ulocladium chartarum, Mucor indicus and Alternaria alternata were separately propagated on Luria agar to suppress sporulation and mycelial plugs were transferred upside down onto the petri dishes containing the growth medium.
(§3) A visual assessment was made of the surface of the petri dishes. The result recorded was the percentage of the surface that remained free of fungus. This was recorded as percentage activity
(§4) For each fungicide, a graph was drawn of percentage activity against concentration of to fungicide in the growth medium. From this graph, the concentrations of fungicide required to achieve 50%, 80% and 95% activity was estimated. These figures are given in the results tables.

Mucor indicus = test: as above; conditions: after 3 days at 25° C., 'no effect' = less than 50% activity at highest dose rate of 100 mg/l
Procedure: as §1, §2, §3, §4

Ulocladium chartarum = test: as above; conditions: after 13 days at 20° C., 'no effect' = less than 50% activity at highest dose rate of 100 mg/l
Procedure: as §1, §2, §3, §4

Alternaria alternata = test: as above
Procedure: as §1, §2, §3, §4

Alternaria tenuissima [1] = test: Liquid culture assay on 24 well plates, solo ai (EC95/MIC); conditions: for EC95: 24° C., 3-6 days; for MIC: Alternaria tenuissima, read-out: MIC Minimal inhibition concentration
Procedure: (§5) The following compounds and formulations were used: […]
(§6) Alternaria tenuissima, Penicillium citrinum, Stachybotrys chartarum, Aspergillus niger and Aureobasidium pullulans were separately cultivated on PDA media to […] sporulation. Spore suspensions were produced for each fungi.
(§7) For solo (i.e. single) ai testing the formulated fungicide (100 ul) was filled into the 24 well plates (8 different rates: 100-0.05 mg aiA final volume as described above) and 100 ul distilled water was added. Afterwards 800 ul of 0.3% PDA media was added to the plate. The spore suspension of the specific fungi was added to this media in advance containing approx. 100.000 spores/ml. The 24 well plates were sealed and incubated at 24° C.
(§8) Dependent on the growth properties of each organisms, the evaluation was done after 3 to 6 days, when the surface of the check well was covered with mycelium. The evaluation was performed by assessing the growth of the fungi related to the check growth. The results are expressed as % activity relative to the check (values of 0-100% growth). Afterwards the results were converted in % growth inhibition. EC95 values and also MIC (minimal inhibition concentration) values were derived for each compound.
(§9) For each solo compound a graph was drawn of percentage inhibition against the concentration of the fungicide. […] Also the concentration that gave the minimum inhibition concentration was derived as the MIC value.

Stachybotrys chartarum [2] = test: as above; conditions: for EC95: 24° C., 3-6 days; for MIC: Stachybotrys chartarum, read-out: MIC Minimal inhibition concentration
Procedure: as §5, §6, §7, §8, §9

Aureobasidium pullulans [3] = test: as above; conditions: for EC95: 24° C., 3-6 days; for MIC: Aureobasidium pullulans, read-out: MIC Minimal inhibition concentration
Procedure: as §5, §6, §7, §8, §9

Aspergillus niger [4] = test: as above; conditions: for EC95: 24° C., 3-6 days; for MIC: Aspergillus niger, read-out: MIC Minimal inhibition concentration
Procedure: as §5, §6, §7, §8, §9

Penicillium citrinum = test: as above; conditions: for EC95: 24° C., 3-6 days; for MIC: Penicillium citrinum, read-out: MIC Minimal inhibition concentration
Procedure: as §5, §6, §7, §8, §9

Stachybotrys chartarum [5] = test: Synergy testing of 2-way mixtures, 24 well plates; conditions: S. chartarum
Procedure: (§10) For synergism testing of the 2-way mixtures 100 ul of each fungicide were filled into the 24 well plates (8 different rates) and 800 ul of 0.3% PDA media containing the spore suspension was added (see above). Different ratios of the 2 fungicide rates were tested at the same time.
as §6
(§11) For the mixtures of different fungicides the synergism was calculated based on the Colby equation, which is described below: […]
(§12) A synergistic effect exists whenever the action of the active ingredient combination of the compound of formula I and one or more compounds of formula II is greater than the sum of the actions of the active ingredients applied individually.
(§13) The fungicidal action to be expected, We, for a given combination of two fungicides can be calculated as follows (see COLBY, S. R. “Calculating synergistic and antagonistic response of herbicide combinations”. Weeds 15, pages 20-22; 1967):
(§14) If the activity actually observed is greater than the expected value We, there is a synergistic effect.
(§15) All rates below are expressed as mg ai/l (i.e. ppm).

Aureobasidium pullulans [6] = test: Synergy testing of 2-way mixtures, 24 well plates; conditions: A. pullulans
Procedure: as §10, §6, §11, §12, §13, §14, §15

Aspergillus niger [7] = test: Synergy testing of 2-way mixtures, 24 well plates; conditions: A. niger
Procedure: as §10, §6, §11, §12, §13, §14, §15

Alternaria tenuissima [8] = test: Synergy testing of 2-way mixtures, 24 well plates; conditions: A. tenuissima
Procedure: as §10, §6, §11, §12, §13, §14, §15

[9] = A. tenuissima, rates 0-100 mg ai/l, mean values of n = 5
[10] = S. chartarum, rates 0-100 mg ai/l, mean values of n = 5
[11] = A. pullulans, rates 0-100 mg ai/l, mean values of n = 5
[12] = A. niger, rates 0-100 mg ai/l, mean values of n = 5
[13] = P. citrinum, rates 0-100 mg ai/l, mean values of n = 5
[14] = CCZ + FDL table, rate (PPZ) 3.1 mg ai/l
[15] = CCZ + FDL table, rate (PPZ) 1.6 mg ai/l

## c1ccc2[nH]c(-c3cscn3)nc2c1 [Thiabendazole]
Aspergillus versicolor
  Concentration required for 80% Activity: 6.9 mg/L
Mucor indicus
  Concentration required for 80% Activity: No effect
Ulocladium chartarum
  Concentration required for 80% Activity: No effect
Alternaria alternata
  Concentration required for 95% Activity: >5000 mg/L

## CC1COC(Cn2cncn2)(c2ccc(Oc3ccc(Cl)cc3)cc2Cl)O1 (stereo not shown) [Difenoconazole]
Alternaria tenuissima [1]; A. tenuissima
  EC95: 0.7 mg ai/l
Alternaria tenuissima [1]; [9]
  MIC: 0.8 mg/L (≈ 1.97 µM)
Stachybotrys chartarum [2]; S. chartarum
  EC95: 2.7 mg ai/l
Stachybotrys chartarum [2]; [10]
  MIC: 3.1 mg/L (≈ 7.63 µM)
Aureobasidium pullulans [3]; A. pullulans
  EC95: 8 mg ai/l
Aureobasidium pullulans [3]; [11]
  MIC: 12.5 mg/L (≈ 30.8 µM)
Aspergillus niger [4]; A. niger
  EC95: 1.4 mg ai/l
Aspergillus niger [4]; [12]
  MIC: 1.6 mg/L (≈ 3.94 µM)
Penicillium citrinum; P. citrinum
  EC95: 1.7 mg ai/l
Penicillium citrinum; [13]
  MIC: 1.6 mg/L (≈ 3.94 µM)
Stachybotrys chartarum [5]; DFZ 0.8 mg ai/l
  inh % (DFZ alone): 50%
Stachybotrys chartarum [5]; DFZ 1.6 mg ai/l
  inh % (DFZ alone): 90%
Aureobasidium pullulans [6]; DFZ 0.2 mg ai/l
  inh % (DFZ alone): 70%
Aureobasidium pullulans [6]; DFZ 0.8 mg ai/l
  inh % (DFZ alone): 90%
Aureobasidium pullulans [6]; DFZ 1.6 mg ai/l
  inh % (DFZ alone): 90%
Aureobasidium pullulans [6]; DFZ 3.1 mg ai/l
  inh % (DFZ alone): 70%
Aspergillus niger [7]; DFZ 0.05 mg ai/l
  inh % (DFZ alone): 0%
Aspergillus niger [7]; DFZ 0.2 mg ai/l
  inh % (DFZ alone): 0%
Aspergillus niger [7]; DFZ 0.8 mg ai/l
  inh % (DFZ alone): 10%

## CCCC1COC(Cn2cncn2)(c2ccc(Cl)cc2Cl)O1 (stereo not shown) [Propiconazole]
Alternaria tenuissima [1]; A. tenuissima
  EC95: 10.1 mg ai/l
Alternaria tenuissima [1]; [9]
  MIC: 12.5 mg/L (≈ 36.5 µM)
Stachybotrys chartarum [2]; S. chartarum
  EC95: >100 mg ai/l
Stachybotrys chartarum [2]; [10]
  MIC: > 100 mg/L
Aureobasidium pullulans [3]; A. pullulans
  EC95: 36 mg ai/l
Aureobasidium pullulans [3]; [11]
  MIC: 50 mg/L (≈ 146 µM)
Aspergillus niger [4]; A. niger
  EC95: 3 mg ai/l
Aspergillus niger [4]; [12]
  MIC: 3.1 mg/L (≈ 9.06 µM)
Penicillium citrinum; P. citrinum
  EC95: 1.5 mg ai/l
Penicillium citrinum; [13]
  MIC: 1.6 mg/L (≈ 4.68 µM)
Aspergillus versicolor
  Concentration required for 80% Activity: 9.2 mg/L
Mucor indicus
  Concentration required for 80% Activity: 61 mg/L
Ulocladium chartarum
  Concentration required for 80% Activity: 4.2 mg/L
Alternaria alternata
  Concentration required for 95% Activity: 16 mg/L
Alternaria tenuissima [8]; PPZ 0.8 mg ai/l
  inh % (PPZ alone): 0%
Alternaria tenuissima [8]; PPZ 1.6 mg ai/l
  inh % (PPZ alone): 10%
Alternaria tenuissima [8]; PPZ 3.1 mg ai/l
  inh % (PPZ alone): 30%
Aureobasidium pullulans [6]; PPZ 3.1 mg ai/l
  inh % (PPZ alone): 70%
Aureobasidium pullulans [6]; PPZ 12.5 mg ai/l
  inh % (PPZ alone): 70%
Aspergillus niger [7]; PPZ 0.05 mg ai/l
  inh % (PPZ alone): 0%
Aspergillus niger [7]; PPZ 0.2 mg ai/l
  inh % (PPZ alone): 0%
Aspergillus niger [7]; PPZ 0.8 mg ai/l
  inh % (PPZ alone): 0%
Aspergillus niger [7]; PPZ 1.6 mg ai/l
  inh % (PPZ alone): 30%

## CC(C1CC1)C(O)(Cn1cncn1)c1ccc(Cl)cc1 (stereo not shown) [Cyproconazole]
Alternaria tenuissima [1]; A. tenuissima
  EC95: 10.2 mg ai/l
Alternaria tenuissima [1]; [9]
  MIC: 12.5 mg/L (≈ 42.8 µM)
Stachybotrys chartarum [2]; S. chartarum
  EC95: >100 mg ai/l
Stachybotrys chartarum [2]; [10]
  MIC: > 100 mg/L
Aureobasidium pullulans [3]; A. pullulans
  EC95: 6.5 mg ai/l
Aureobasidium pullulans [3]; [11]
  MIC: 12.5 mg/L (≈ 42.8 µM)
Aspergillus niger [4]; A. niger
  EC95: 10.1 mg ai/l
Aspergillus niger [4]; [12]
  MIC: 12.5 mg/L (≈ 42.8 µM)
Penicillium citrinum; P. citrinum
  EC95: 50 mg ai/l
Penicillium citrinum; [13]
  MIC: 50 mg/L (≈ 171 µM)
Alternaria tenuissima [8]; CCZ + FDL table, rate (PPZ) 0.8 mg ai/l
  inh % (PPZ alone): 10%
Alternaria tenuissima [8]; [14]
  inh % (PPZ alone): 30%
Aureobasidium pullulans [6]; [15]
  inh % (PPZ alone): 70%
Aspergillus niger [7]; [15]
  inh % (PPZ alone): 0%
Aspergillus niger [7]; [14]
  inh % (PPZ alone): 0%

## N#Cc1c[nH]cc1-c1cccc2c1OC(F)(F)O2 [Fludioxonil]
Alternaria tenuissima [1]; A. tenuissima
  EC95: 1.3 mg ai/l
Alternaria tenuissima [1]
  MIC: 1.6 mg/L (≈ 6.45 µM)
Stachybotrys chartarum [2]; S. chartarum
  EC95: 0.18 mg ai/l
Stachybotrys chartarum [2]
  MIC: 0.2 mg/L (≈ 0.806 µM)
Aureobasidium pullulans [3]; A. pullulans
  EC95: >100 mg ai/l
Aureobasidium pullulans [3]
  MIC: > 100 mg/L
Aspergillus niger [4]; A. niger
  EC95: >100 mg ai/l
Aspergillus niger [4]
  MIC: > 100 mg/L
Penicillium citrinum; P. citrinum
  EC95: 0.18 mg ai/l
Penicillium citrinum
  MIC: 0.2 mg/L (≈ 0.806 µM)
Aspergillus versicolor
  Concentration required for 80% Activity: 0.81 mg/L
Mucor indicus
  Concentration required for 80% Activity: 2.8 mg/L
Ulocladium chartarum
  Concentration required for 80% Activity: 0.28 mg/L
Alternaria alternata
  Concentration required for 95% Activity: 0.95 mg/L
Alternaria tenuissima [8]; FDL 0.2 mg ai/l, listed as FDL
  inh % (FDL alone): 90% and 70%
Alternaria tenuissima [8]; FDL 0.8 mg ai/l
  inh % (FDL alone): 90%
Stachybotrys chartarum [5]; FDL 0.05 mg ai/l
  inh % (FDL alone): 10%
Aureobasidium pullulans [6]; FDL 0.8 mg ai/l
  inh % (FDL alone): 10%
Aureobasidium pullulans [6]; FDL 1.6 mg ai/l, listed as FDL
  inh % (FDL alone): 0% and 10%
Aureobasidium pullulans [6]; FDL 3.1 mg ai/l, listed as FDL
  inh % (FDL alone): 0% and 10%
Aureobasidium pullulans [6]; FDL 12.5 mg ai/l, listed as FDL
  inh % (FDL alone): 0% and 10%
Aureobasidium pullulans [6]; FDL 50 mg ai/l, listed as FDL
  inh % (FDL alone): 0% and 10%
Aureobasidium pullulans [6]; FDL 100 mg ai/l, listed as FDL
  inh % (FDL alone): 0% and 10%
Aspergillus niger [7]; FDL 0.2 mg ai/l
  inh % (FDL alone): 30%
Aspergillus niger [7]; FDL 0.8 mg ai/l
  inh % (FDL alone): 30%
Aspergillus niger [7]; FDL 1.6 mg ai/l
  inh % (FDL alone): 30%
Aspergillus niger [7]; FDL 3.1 mg ai/l
  inh % (FDL alone): 30%
Aspergillus niger [7]; FDL 12.5 mg ai/l
  inh % (FDL alone): 30%
Aspergillus niger [7]; FDL 50 mg ai/l
  inh % (FDL alone): 30%
Aspergillus niger [7]; FDL 100 mg ai/l
  inh % (FDL alone): 30%
